Results from patent US6126940A, “Hair-growing agent comprised of proanthocyanidins” (Kyowa Hakko Kogyo Co., Ltd., priority 1994, dated 2000).

Test system: dd mice
Test: Acute Toxicity
Type: in vivo, mouse (male dd)
Settings: subcutaneous, 2000 mg/kg, five male dd mice

For `Oc1cc(O)c2c(c1)O[C@H](c1ccc(O)c(O)c1)[C@H](O)[C@H]2c1c(O)cc(O)c2c1O[C@H](c1ccc(O)c(O)c1)[C@H](O)C2` [Compound 2, epicatechin-(4β→8)-epicatechin], the mortality was “none of the mice died”.
